Reference: ChEMBL document CHEMBL1201862, “PubChem BioAssay data set” (2004)
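Step 1: Grow cells in 96-well plates. Step 2: Expose to compound for 48 hours at 5 concentrations. Step 3: Interpolate endpoints linearly; if unreached, use highest concentration. The concentration for 50% growth inhibition is given as GI50.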 The source made the active and inactive calls. No stated cut-off is given here; in the data, active = GI50 up to about 1.1 µM and inactive = higher.

Tests used:
Test in all cases: DTP human tumour cell line panel, 48 h
OVCAR-4 = system: OVCAR-4
NCI-H23 = system: NCI-H23
HT-29 = system: HT-29
OVCAR-3 = system: OVCAR-3
UACC-257 = system: UACC-257
NCI-H522 = system: NCI-H522
HCT-15 = system: HCT-15
M14 = system: M14
EKVX = system: EKVX
MCF7 = system: MCF7
HCC 2998 = system: HCC 2998
A498 = system: A498
HCT-116 = system: HCT-116
SF-539 = system: SF-539
A549 = system: A549
SNB-19 = system: SNB-19
NCI-H460 = system: NCI-H460
RXF 393 = system: RXF 393
SF-295 = system: SF-295
CAKI-1 = system: CAKI-1

SMILES | GI50 (OVCAR-4) | GI50 (NCI-H23) | GI50 (HT-29) | GI50 (OVCAR-3) | GI50 (UACC-257) | GI50 (NCI-H522) | GI50 (HCT-15) | GI50 (M14) | GI50 (EKVX) | GI50 (MCF7) | GI50 (HCC 2998) | GI50 (A498) | GI50 (HCT-116) | GI50 (SF-539) | GI50 (A549) | GI50 (SNB-19) | GI50 (NCI-H460) | GI50 (RXF 393) | GI50 (SF-295) | GI50 (CAKI-1)
Cc1nn(CN2CCN(C)CC2)c(=S)n1/N=C/c1ccc(-c2ccc(Cl)cc2Cl)o1 | 37.4 µM (inactive) | 71.6 µM (inactive) | 89.1 µM (inactive) | 64 µM (inactive) | 66.7 µM (inactive) | > 100 µM (inactive) | 47.2 µM | > 100 µM (inactive) | 14.8 µM (inactive) | 33.4 µM (inactive) | > 100 µM (inactive) | 19.2 µM (inactive) | 74.6 µM (inactive) | 35.9 µM (inactive) | > 100 µM (inactive) | > 100 µM (inactive) | – | – | – | –
N/C(=N\c1ccc(Cl)cc1)NS(=O)(=O)c1c(C(F)(F)F)cccc1C(F)(F)F | 17.5 µM (inactive) | 5.58 µM (inactive) | 19.8 µM (inactive) | 16.6 µM (inactive) | 18.6 µM (inactive) | 10.1 µM (inactive) | 17 µM | 26.3 µM (inactive) | 5.93 µM (inactive) | 15.6 µM (inactive) | – | 17.8 µM (inactive) | 10 µM (inactive) | 41.3 µM (inactive) | 12.6 µM (inactive) | 18.9 µM (inactive) | 14.5 µM (inactive) | 45.8 µM (inactive) | 7.85 µM (inactive) | –
N#CC(C#N)=Cc1c[nH]c(=O)[nH]c1=O | > 100 µM (inactive) | > 100 µM (inactive) | > 100 µM (inactive) | > 100 µM (inactive) | > 100 µM (inactive) | 41 µM (inactive) | > 100 µM | > 100 µM (inactive) | > 100 µM (inactive) | > 100 µM (inactive) | – | > 100 µM (inactive) | > 100 µM (inactive) | > 100 µM (inactive) | > 100 µM (inactive) | > 100 µM (inactive) | > 100 µM (inactive) | > 100 µM (inactive) | > 100 µM (inactive) | > 100 µM (inactive)
CC(C)(O)C1COC2=C1C(=O)c1ccccc1C2=O (configuration not stated) | 71 µM (inactive) | 18.2 µM (inactive) | 44.4 µM (inactive) | 24.9 µM (inactive) | 71.9 µM (inactive) | 47.1 µM (inactive) | 27.5 µM | 35.6 µM (inactive) | 32.3 µM (inactive) | 20.3 µM (inactive) | > 100 µM (inactive) | > 100 µM (inactive) | 25.3 µM (inactive) | 43.6 µM (inactive) | > 100 µM (inactive) | > 100 µM (inactive) | 54 µM (inactive) | – | 42.5 µM (inactive) | 60.7 µM (inactive)
O=C1O/C(=C\c2ccccc2)N(c2ccccc2)C1=O | > 100 µM (inactive) | > 100 µM (inactive) | > 100 µM (inactive) | > 100 µM (inactive) | > 100 µM (inactive) | > 100 µM (inactive) | > 100 µM | > 100 µM (inactive) | > 100 µM (inactive) | 51.8 µM (inactive) | > 100 µM (inactive) | > 100 µM (inactive) | > 100 µM (inactive) | – | > 100 µM (inactive) | > 100 µM (inactive) | > 100 µM (inactive) | > 100 µM (inactive) | – | > 100 µM (inactive)
C#CCNC(Cc1c[nH]cn1)C(=O)O (configuration not stated) | > 100 µM (inactive) | – | > 100 µM (inactive) | > 100 µM (inactive) | > 100 µM (inactive) | > 100 µM (inactive) | > 100 µM | > 100 µM (inactive) | > 100 µM (inactive) | > 100 µM (inactive) | – | > 100 µM (inactive) | > 100 µM (inactive) | > 100 µM (inactive) | > 100 µM (inactive) | > 100 µM (inactive) | > 100 µM (inactive) | > 100 µM (inactive) | > 100 µM (inactive) | > 100 µM (inactive)
Cc1nc(C(N)=S)sc1C(=O)CC(=O)C(=O)Nc1ccc(Br)cc1 | > 100 µM (inactive) | > 100 µM (inactive) | > 100 µM (inactive) | > 100 µM (inactive) | > 100 µM (inactive) | 66.4 µM (inactive) | > 100 µM | > 100 µM (inactive) | > 100 µM (inactive) | > 100 µM (inactive) | – | > 100 µM (inactive) | > 100 µM (inactive) | > 100 µM (inactive) | > 100 µM (inactive) | – | > 100 µM (inactive) | > 100 µM (inactive) | > 100 µM (inactive) | > 100 µM (inactive)
COc1cc(/C=C2/SC(c3ccccc3)N(Cc3ccccc3)C2=O)cc(OC)c1OC (configuration not stated) | 31.4 µM (inactive) | 31.6 µM (inactive) | 25.9 µM (inactive) | 33.7 µM (inactive) | 33.7 µM (inactive) | 17.2 µM (inactive) | 38.7 µM | 75.3 µM (inactive) | 42.9 µM (inactive) | 30.3 µM (inactive) | 80.5 µM (inactive) | 49.1 µM (inactive) | 14.9 µM (inactive) | – | 67 µM (inactive) | > 100 µM (inactive) | 38.2 µM (inactive) | 7.14 µM (inactive) | 30.6 µM (inactive) | > 100 µM (inactive)
CCN(CC)C(=S)N/N=C/c1cc([N+](=O)[O-])ccc1O | 3.65 µM (inactive) | 6.59 µM (inactive) | 5.45 µM (inactive) | 0.0528 µM (active) | 8.53 µM (inactive) | 5.07 µM (inactive) | 3.62 µM | 4.17 µM (inactive) | 4.56 µM (inactive) | 2.22 µM (inactive) | 8.53 µM (inactive) | 2.25 µM (inactive) | 2.75 µM (inactive) | 6.15 µM (inactive) | 12.8 µM (inactive) | 9.16 µM (inactive) | 3 µM (inactive) | 6.97 µM (inactive) | 4.56 µM (inactive) | –
Fc1c(F)c(C(F)(F)F)c(F)c(F)c1N/N=C\c1c[nH]c2ccccc12 | 2.44 µM (inactive) | 3.95 µM (inactive) | 2.48 µM (inactive) | 1.87 µM (inactive) | 3.52 µM (inactive) | 1.74 µM (inactive) | 3.37 µM | 1.62 µM (inactive) | 2.84 µM (inactive) | 2.69 µM (inactive) | 1.85 µM (inactive) | 3.44 µM (inactive) | 3.73 µM (inactive) | – | 3.16 µM (inactive) | 2.86 µM (inactive) | 1.86 µM (inactive) | 2 µM (inactive) | 2.2 µM (inactive) | 2.55 µM (inactive)
O=C1OI(C#Cc2ccccc2)c2ccccc21 | 3.93 µM (inactive) | 2.38 µM (inactive) | 3.94 µM (inactive) | 2.64 µM (inactive) | 5.2 µM (inactive) | – | 3.18 µM | 4.38 µM (inactive) | 2.76 µM (inactive) | 3.69 µM (inactive) | 6.58 µM (inactive) | 4.57 µM (inactive) | 2.24 µM (inactive) | 2.16 µM (inactive) | 8.65 µM (inactive) | 7.29 µM (inactive) | 3.18 µM (inactive) | 5.43 µM (inactive) | 13.5 µM (inactive) | 2.61 µM (inactive)
